Results published in article PMC4835877, “HM71224, a novel Bruton’s tyrosine kinase inhibitor, suppresses B cell and monocyte activation and ameliorates arthritis in a mouse model: a potential drug for rheumatoid arthritis” (Arthritis Research & Therapy, 2016).
Read-outs that look alike come from different tables or passages of the source.

Columns and labels:
[1] = test system: phosphorylation of Btk and PLCγ2 in primary human B cells; assay: BCR signaling in primary human B cells (immunoblot); type: cell-based; conditions: BCR ligation
Method: (§3) Ramos cells or human B cells were pretreated with the indicated concentrations of HM71224 and then stimulated with anti-IgM F(ab’)2 (Southern Biotech, Birmingham, AL, USA) for 10 minutes on ice. Cells were then lysed in RIPA buffer (Sigma-Aldrich), and the proteins were separated by SDS-PAGE (Bio-Rad Laboratories, Hercules, CA, USA), transferred onto polyvinylidene fluoride (PVDF) membranes, and immunoblotted with anti-pBtk Y223 (catalog number 5082; Cell Signaling Technology, Danvers, MA, USA), anti-pPLCγ2 Y759 (catalog number 3874; Cell Signaling Technology), anti-pPLCγ2 Y1217 (Cell Signaling Technology), anti-pERK T202/204 (197G2; Cell Signaling Technology), anti-Btk (C82B8; Cell Signal Technology), anti-PLCγ2 (catalog number 3872; Cell Signal Technology), anti-ERK1/2 (3A7; Cell Signaling Technology), and anti-GAPDH (FL-335; Santa Cruz Biotechnology, Santa Cruz, TX, USA) antibodies.

BTK [2] = molecular target: T1, BTK (Homo sapiens, UniProt Q06187); assay: FRET-based Z'-Lyte kinase assay; design: purchased ThermoFisher Scientific (contract research organization); conditions: read-out: Biochemical Inhibition, IC50
T1 sequence (Q06187 whole entry): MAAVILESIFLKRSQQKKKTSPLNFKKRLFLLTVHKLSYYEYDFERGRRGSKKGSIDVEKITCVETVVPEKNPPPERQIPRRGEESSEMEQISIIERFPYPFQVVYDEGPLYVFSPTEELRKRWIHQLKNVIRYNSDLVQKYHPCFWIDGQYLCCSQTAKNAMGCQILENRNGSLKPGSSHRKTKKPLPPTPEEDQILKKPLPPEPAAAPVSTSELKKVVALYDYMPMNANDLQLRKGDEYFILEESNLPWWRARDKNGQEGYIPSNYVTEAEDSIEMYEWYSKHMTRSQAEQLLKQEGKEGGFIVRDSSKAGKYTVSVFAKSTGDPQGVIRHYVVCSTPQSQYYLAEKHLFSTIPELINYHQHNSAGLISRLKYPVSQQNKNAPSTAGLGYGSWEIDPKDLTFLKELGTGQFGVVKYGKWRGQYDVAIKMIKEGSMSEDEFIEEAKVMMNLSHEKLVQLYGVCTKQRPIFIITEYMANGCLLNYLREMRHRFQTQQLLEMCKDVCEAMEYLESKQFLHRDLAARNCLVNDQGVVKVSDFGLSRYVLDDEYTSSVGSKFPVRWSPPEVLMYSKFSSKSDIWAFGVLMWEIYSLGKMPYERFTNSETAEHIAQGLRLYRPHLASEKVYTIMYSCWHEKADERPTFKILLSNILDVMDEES
Source text: (§1) To determine the biochemical selectivity of HM71224, we tested more than 85 kinases using the fluorescence resonance energy transfer (FRET) method.

EGFR [3] = molecular target: T2, EGFR (Homo sapiens, UniProt P00533); assay: FRET-based Z'-Lyte kinase assay; design: purchased ThermoFisher Scientific (contract research organization); conditions: read-out: Biochemical Inhibition, IC50
T2 sequence (P00533 25-1210): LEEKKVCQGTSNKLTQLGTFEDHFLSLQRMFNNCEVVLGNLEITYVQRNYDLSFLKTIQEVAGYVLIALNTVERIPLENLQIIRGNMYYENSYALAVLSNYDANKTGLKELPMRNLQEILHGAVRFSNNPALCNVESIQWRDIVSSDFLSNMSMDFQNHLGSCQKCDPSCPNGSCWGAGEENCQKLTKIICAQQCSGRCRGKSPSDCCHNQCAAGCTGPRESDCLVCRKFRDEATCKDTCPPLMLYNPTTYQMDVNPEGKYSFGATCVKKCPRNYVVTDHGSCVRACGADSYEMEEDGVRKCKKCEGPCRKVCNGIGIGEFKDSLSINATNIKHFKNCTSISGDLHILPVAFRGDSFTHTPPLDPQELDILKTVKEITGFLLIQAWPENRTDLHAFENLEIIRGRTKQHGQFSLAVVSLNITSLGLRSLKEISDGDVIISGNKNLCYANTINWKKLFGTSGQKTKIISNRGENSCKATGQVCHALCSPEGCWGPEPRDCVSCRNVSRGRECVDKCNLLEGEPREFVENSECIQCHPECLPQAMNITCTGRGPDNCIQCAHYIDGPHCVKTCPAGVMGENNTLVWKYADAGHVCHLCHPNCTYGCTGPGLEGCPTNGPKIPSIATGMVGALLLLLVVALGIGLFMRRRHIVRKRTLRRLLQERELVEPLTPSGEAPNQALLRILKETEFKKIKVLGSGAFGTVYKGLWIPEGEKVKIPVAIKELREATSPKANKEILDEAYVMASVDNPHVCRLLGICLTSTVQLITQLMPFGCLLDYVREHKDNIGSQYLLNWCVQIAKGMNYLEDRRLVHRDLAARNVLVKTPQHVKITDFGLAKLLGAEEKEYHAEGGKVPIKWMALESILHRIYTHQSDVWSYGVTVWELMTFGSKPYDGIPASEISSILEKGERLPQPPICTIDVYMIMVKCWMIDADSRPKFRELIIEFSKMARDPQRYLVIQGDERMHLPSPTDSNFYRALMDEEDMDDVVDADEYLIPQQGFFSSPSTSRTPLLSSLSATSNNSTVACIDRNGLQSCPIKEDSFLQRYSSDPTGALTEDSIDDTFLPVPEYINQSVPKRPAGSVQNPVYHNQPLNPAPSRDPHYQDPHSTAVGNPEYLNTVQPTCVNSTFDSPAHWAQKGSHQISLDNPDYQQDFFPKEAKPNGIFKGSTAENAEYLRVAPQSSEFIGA
Source text: as §1

[4] = test system: human plasmacytoid dendritic cells; assay: Cytokine production by human PDCs stimulated with CpG ODN or LPS (ELISA); type: cell-based; conditions: CpG ODN (TLR9 agonist), 1 μM, 48 h
Method: (§4) Human monocytes were stimulated with heat-inactivated ICs at 37 °C for 30 minutes in the presence of increasing concentrations of HM71224. Human PDCs were stimulated with lipopolysaccharide (LPS) or CpG ODN 2006 (ThermoFisher Scientific) for 48 h in the absence or presence of HM71224 (1 μM). The production of tumor necrosis factor (TNF)-α, interleukin (IL)-1β, and IL-6 was then measured using a commercial ELISA (R&D Systems). […] The levels of the indicated cytokines in the culture supernatant were then measured by ELISA at 5 h post stimulation. […] The levels of the indicated cytokines in the culture supernatant were then measured by ELISA at 48 h post stimulation.*P < 0.05, **P < 0.01, and ***P < 0.001 vs. no treatment. LPS lipopolysaccharide

[5] = test system: phosphorylation of Btk, PLC-γ2, Erk; assay: Phospho-flow cytometry of BCR-crosslinked human PBMCs; type: cell-based; conditions: anti-IgM F(ab')2
Method: (§2) For phospho-flow, B cells were activated by crosslinking their BCRs with anti-human IgM antibodies (10 μg/mL; BD Biosciences) for 10 minutes at 37 °C. Cells were then fixed with 2 % paraformaldehyde at 37 °C for 12 minutes, permeabilized, and stained with anti-CD3-FITC (SK7; BD Biosciences), anti-CD20-PerCP-Cy5.5 (H1; BD Biosciences), anti-pBtk (Y223)-Alexa647 (N35-86; BD Biosciences), anti-pPLCγ2 (Y759)-Alexa647 (K86-689.37; BD Biosciences), anti-pSTAT1 (Y701)-Alexa647 (4a; BD Biosciences), anti-pSTAT3 (Y705)-Alexa647 (4/P-STAT3; BD Biosciences), anti-pSTAT5 (Y694)-Alexa647 (47; BD Biosciences), and anti-pERK1/2 (T202/204)-Alexa647 (20A; BD Biosciences) antibodies. The cells were then washed and analyzed on an LSR II flow cytometer (BD Biosciences). Data were analyzed using FlowJo software, version 8.8 (Treestar, Ashland, OR, USA).

[6] = test system: phosphorylation of Btk and PLCγ2 in Ramos cells; assay: BCR signaling in anti-IgM stimulated Ramos cells (immunoblot); type: cell-based, human
Method: as §3
The Ramos B cell lymphoma cell line was chosen to study the inhibitory effects of HM71224 on the BCR signaling cascade as it endogenously expresses Btk [14]. […] Ramos cells were incubated with 100 nM HM71224 for 1 h. After washing, the cells were stimulated with anti-IgM F(ab’)2.

human CD14+ monocytes = assay: Cytokine production by IC-stimulated human monocytes (ELISA); type: cell-based; conditions: heat-inactivated ICs, increasing concentrations
Method: as §4

BTK [7] = molecular target: T1, BTK; assay: Btk occupancy in human PBMCs (biotinylated probe); type: cell-based; conditions: primary human cells (PBMCs), 100 nM
CD3+ T cells = assay: T cell signaling, phospho-flow of CD3/CD28-activated PBMCs; type: cell-based, human; conditions: CD3- and CD28-conjugated beads
Method: as §2
Figure S5. Effect of HM71224 on human T cell signaling. […] The expression level of p-STAT1, p-STAT3, p-STAT5, and p-ERK1/2 by CD3+ T cells was then measured by phospho-flow cytometry.

LCK = molecular target: T3, LCK (Homo sapiens, UniProt P06239); assay: FRET-based Z'-Lyte kinase assay; conditions: read-out: Biochemical Inhibition, IC50
T3 construct: purchased ThermoFisher Scientific (contract research organization)
T3 sequence (P06239 whole entry): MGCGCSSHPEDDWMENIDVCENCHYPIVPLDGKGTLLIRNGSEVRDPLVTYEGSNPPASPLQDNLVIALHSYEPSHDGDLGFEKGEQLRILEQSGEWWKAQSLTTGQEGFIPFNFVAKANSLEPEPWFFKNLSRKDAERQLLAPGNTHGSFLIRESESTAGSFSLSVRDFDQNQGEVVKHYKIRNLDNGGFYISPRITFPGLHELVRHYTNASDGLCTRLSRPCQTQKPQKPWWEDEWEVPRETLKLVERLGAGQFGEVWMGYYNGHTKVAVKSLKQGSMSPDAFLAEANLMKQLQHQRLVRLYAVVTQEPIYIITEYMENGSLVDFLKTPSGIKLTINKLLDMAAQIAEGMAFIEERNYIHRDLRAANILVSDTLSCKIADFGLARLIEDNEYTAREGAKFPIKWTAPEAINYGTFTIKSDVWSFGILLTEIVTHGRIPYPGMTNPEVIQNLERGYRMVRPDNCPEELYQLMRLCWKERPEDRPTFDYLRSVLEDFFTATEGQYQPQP
Source text: as §1

LYN = molecular target: T4, LYN (Homo sapiens, UniProt P07948); assay: FRET-based Z'-Lyte kinase assay; conditions: read-out: Biochemical Inhibition, IC50
T4 construct: purchased ThermoFisher Scientific (contract research organization)
T4 sequence (P07948 whole entry): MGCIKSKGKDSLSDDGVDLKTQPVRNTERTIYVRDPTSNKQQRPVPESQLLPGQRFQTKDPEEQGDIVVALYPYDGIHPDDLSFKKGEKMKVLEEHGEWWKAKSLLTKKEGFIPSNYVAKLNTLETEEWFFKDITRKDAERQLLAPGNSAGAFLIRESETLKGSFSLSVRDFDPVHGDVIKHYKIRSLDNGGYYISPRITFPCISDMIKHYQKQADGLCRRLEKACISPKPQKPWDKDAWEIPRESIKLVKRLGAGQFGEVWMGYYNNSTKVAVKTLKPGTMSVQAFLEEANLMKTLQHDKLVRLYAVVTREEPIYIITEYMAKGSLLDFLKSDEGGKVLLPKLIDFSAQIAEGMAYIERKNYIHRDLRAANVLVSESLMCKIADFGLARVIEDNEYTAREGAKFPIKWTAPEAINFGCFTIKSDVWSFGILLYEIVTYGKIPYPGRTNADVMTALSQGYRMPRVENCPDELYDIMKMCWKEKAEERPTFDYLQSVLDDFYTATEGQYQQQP
Source text: as §1

ITK = molecular target: T5, ITK (Homo sapiens, UniProt Q08881); assay: FRET-based Z'-Lyte kinase assay; conditions: read-out: Biochemical Inhibition, IC50
T5 construct: purchased ThermoFisher Scientific (contract research organization)
T5 sequence (Q08881 whole entry): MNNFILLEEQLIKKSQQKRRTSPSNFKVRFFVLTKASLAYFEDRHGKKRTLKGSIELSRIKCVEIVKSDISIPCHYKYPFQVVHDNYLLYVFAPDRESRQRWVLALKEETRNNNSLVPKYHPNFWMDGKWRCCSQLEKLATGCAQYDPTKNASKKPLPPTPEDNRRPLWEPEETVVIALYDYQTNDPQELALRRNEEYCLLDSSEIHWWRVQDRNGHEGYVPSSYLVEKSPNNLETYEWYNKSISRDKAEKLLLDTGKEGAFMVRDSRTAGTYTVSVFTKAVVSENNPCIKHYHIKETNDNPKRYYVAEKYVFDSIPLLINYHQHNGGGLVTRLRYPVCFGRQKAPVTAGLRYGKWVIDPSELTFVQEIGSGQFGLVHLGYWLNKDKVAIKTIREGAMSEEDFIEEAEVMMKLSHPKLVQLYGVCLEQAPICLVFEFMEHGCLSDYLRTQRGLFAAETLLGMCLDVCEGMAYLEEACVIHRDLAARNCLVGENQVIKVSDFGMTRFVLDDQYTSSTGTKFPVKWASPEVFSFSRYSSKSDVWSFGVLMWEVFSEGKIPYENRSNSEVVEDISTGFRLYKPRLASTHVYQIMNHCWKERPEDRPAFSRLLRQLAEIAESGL
Source text: as §1

EGFR [8] = molecular target: T2, EGFR; assay: Phosphorylation of EGFR in cells; type: cell-based; design: EGFR-overexpressing epidermoid carcinoma A431 cell line; endogenous in cells; host or cells: A431; conditions: cellular; read-out: IC50 on inhibiting EGFR phosphorylation
BTK [9] = molecular target: T1, BTK; assay: Btk occupancy in Ramos cells (biotinylated probe); type: cell-based
Method: After treatment with HM71224, cells were lysed and then incubated for 1 h with 1 μM of biotinylated probe (HM71224 derivative). The lysed cells were loaded into streptavidin-coated wells and then incubated with an anti-Btk antibody (1:1000; clone number D3H5, Cell signaling Technology, Danvers, MA, USA) for 1 h, followed by a secondary HRP-conjugated antibody (1:10000; EMD Millipore Corporation, Billerica, MA, USA) at room temperature for 1 h. After washing, 100 μL of colorimetric solution (R&D systems, Minneapolis, MN, USA) was added, and the reaction was stopped 30 minutes later by addition of 100 μL of sulfuric acid (0.2 moles/L). The plate was read with the absorbance reader at 450 nm.
To measure Btk occupancy by immunoprecipitation (IP), biotinylated HM71224 probes were preincubated with cell lysates for 1 h at 4 °C. Streptavidin-coated beads were then added, and the mixture was incubated overnight at 4 °C. Immunoblotting was then performed, and band density was measured using MultiGauge V3.0 software (FUJI FILM, Tokyo, Japan). Untreated biotinylated probes were set at 100 %.

[10] = test system: EGFR-overexpressed A431 cells; assay: Cellular growth of EGFR-overexpressed A431 cells; type: cell-based
[11] = test system: activated primary human B cells; assay: Surface activation marker expression by activated B cells (flow cytometry); type: cell-based; conditions: B-cell, anti-IgM F(ab')2 for 24 h
Method: Human PBMCs (10^6 cells/mL) were allowed to rest at 37 °C for 2 h. […] To examine changes in the expression of surface activation markers, cells were stained with anti-CD3-FITC (SK7; BD Biosciences), anti-CD19-PE (HIB19; BD Biosciences), anti-CD40-PE-Cy7 (5C3; BD Biosciences), anti-CD69-V450 (FN50; BD Biosciences), and anti-CD86-PerCP-Cy5.5 (2331 (FUN-1); BD Biosciences) antibodies.

IC50 (BTK [2]): 1.95 nM
IC50 (EGFR [3]): 4.96 nM
Btk sites occupied (BTK [7]): > 70%
IC50 (LCK): > 1000 nM
IC50 (LYN): > 1000 nM
IC50 (ITK): 103 nM
IC50 (EGFR [8]): 800 nM
Btk molecules occupied (BTK [9]; 10 nM): approximately 90%
Btk molecules occupied (BTK [9]; 100 nM): ~100%
GI50 ([10]; Homo sapiens, A-431, read-out: GI50, concentration to inhibit 50 % of cellular growth, EGFR-overexpressed A431 cells): 1000 nM
GI50 ([10]; read-out: GI50, concentration to inhibit 50 % of cellular growth, EGFR-overexpressed A431 cells): > 1000 nM
IC50 ([11]; read-out: IC50, surface expression of CD40): 4.2 nM
IC50 ([11]; read-out: IC50, surface expression of CD69): 4.2 nM
IC50 ([11]; read-out: IC50, surface expression of CD86): 7.7 nM
SMILES: C=CC(=O)Nc1cccc(Oc2nc(Nc3ccc(N4CCN(C)CC4)cc3)nc3ccoc23)c1 [HM71224]
Phosphorylation of Btk and PLCγ2 [1]: effectively inhibited
CpG-mediated production of TNF-α and IL-6 [4]: inhibited CpG-mediated cytokine production
Phosphorylation of Btk and Erk by phospho-flow [5]: inhibited phosphorylation of BTK, and p-Erk in a dose-dependent manner
Duration of inhibition of BTK phosphorylation after washout ([6]; 100 nM for 1 h, washed, then anti-IgM F(ab')2): at least 24 h
Phosphorylation of Btk and PLCγ2 ([6]; anti-IgM F(ab')2): decreased markedly
Production of TNF-α, IL-1β, and IL-6 (human CD14+ monocytes): inhibited in a dose-dependent manner
T cell receptor signaling (p-STAT1, p-STAT3 and p-STAT5) (CD3+ T cells): not affected
p-ERK1/2 in CD3+ T cells (CD3+ T cells): inhibited
